# Results published in patent US7071206B2, “Agents for treating neurodegenerative disorders” (Medivation, Inc., priority 1995, dated 2006).
# How the values were obtained:
# [1] = system: patients suffering from Alzheimer's disease; test: Clinical trial of dimebon: clinical observations of the mental state; assay type: in vivo, human
# Procedure: The test was carried out under the direct supervision by two of the inventors, namely E. E. Bukatina and V. Grigorieva, in 14 patients who agreed to take part in the tests, 13 of whom lived in a boarding house for senile persons and one patient lived with their family.
# Dimebon in the form of tablets (comprising 10 mg of dimebon, 30 mg of lactose, 5 mg of magnesium stearate was prescribed for oral administration in a dose of 0.02 g three to times a day. The patients living in the boarding house received dimebon for 58 days. A patient (observation 14) who was under outpatient observation continued taking the agent for a month after the completion of the tests.
# The test results reflected the condition of the patients at the time of the examination. Any changes in the metal state observed in the interval between the tests and disappearing by the moment of examination according to the scale were described in the section “Clinical Observations”.
# The pattern of the dynamics of the mental states of the patients during the treatment with dimebon registered in clinical observations is presented in Table 17.
# [2] = system: patients suffering from Alzheimer's disease; test: Clinical trial of dimebon: EEG investigations; assay type: in vivo, human; conditions: any patients except one (observation 12: increase of focal Δ-waves, retardation of the rhythm)
# Excerpt: In observations 2, 11 and 14 the weakly positive dynamics of the EEG was manifested in weaker outbursts during hyperventilation and normalization of the zonal differences.
# [3] = system: patients suffering from Alzheimer's disease; conditions: general statement on the agent used in medicine as antiallergic; cited from earlier work
compound,measurement,setting,value
"Cc1ccc2c(c1)c1c(n2CCc2ccc(C)nc2)CCN(C)C1 [No. 10, 2,8-dimethyl-5-[2-(6-methyl-3-pyridyl)ethyl]-2,3,4,5-tetrahydro-1H-pyrido[4,3-b]indole]",number of patients who became more active (cheerfulness and freshness),[1]; 14 patients,4 patients
same,number of patients who complained of headaches much less frequently,[1]; 14 patients,4 patients
same,number of patients who slept better,[1]; 14 patients,2 patients
same,number of patients with a distinct antidepressive effect,[1]; 14 patients,8 patients
same,number of patients with a greater interest in what was happening around,[1]; 14 patients,8 patients
same,"psychopatic-like and depressive manifestations, conclusion",[1]; 14 patients,definite positive effect
same,"psychopathic-like symptoms (lack of restraint, touchiness, conflict making, evil-mindedness or aggressiveness)","[1]; all 7 patients who suffered from them, during the first 2 weeks of therapy",decreased significantly
same,changes in the EEG during the course of treatment,[2],No changes in the EEG
same,toxicity and negative side-effects,[3],non-toxic and does not show any negative side-effects
